Experimental findings from patent US20050153976A1, “Pharmaceutical compositions” (SCHERING CORPORATION, priority 2003, published 2005) are described below.

Data set [1] can be described thus: pKa and log P of the compound of formula I. It counts as physicochemical. The source says: (§1) A particularly useful compound for use in the present invention is the compound represented by the chemical structural formula I comprising: [drawing 5] This compound is chemically known as 1-[(1-acetyl-4-piperidinyl)acetyl]-2(S)-(1,1-dimethylethyl)-4(S)*4-[phenyl [4(trifluoromethoxy)phenyl]methyl]piperazine and has a molecular weight of 559.3 g/mole. It is a weak base with a pKa of 4.0 corresponding to the ionization of the piperazine ring. The value of log P is 3.0 and the log D at pH 7.4 is calculated to be 2.9. […] The compound is very soluble in both ethanol and methanol (>150 mg/mL). The solubility in most common organic solvents, such as acetonitrile, dimethyl sulfoxide (DMSO), methylene chloride, ethyl acetate, isopropyl alcohol, hexane, and acetone, generally exceeds 50 mg/mL. The free form of the compound is amorphous, but a crystalline hydrogen sulfate salt of this compound can be made. The X-ray powder diffraction (XRPD) patterns of the amorphous free base and the crystalline hydrogen sulfate salt are shown in FIG. 1.

The nature of data set [2]: Solubility of the compound in aqueous media and in organic solvents. It counts as physicochemical.
Text: as §1

Data set [3] is described as follows: Evaluation of suspension in 0.4% HPMC solution or water (pH, chemical and physical stability, re-suspensibility). The data set is classed as physicochemical. The source says: With proper ratios of carrier to compound, free flowing and uniform powders or solids can be produced. These powders or solids should have the original molecular characteristics of the adsorbed chemicals. The residual solvent (EtOH) used in this process can be reduced to 20 ppm level. These flowable powders or solids are suspended in an aqueous solution, such as 0.4% HPMC solution or water.
The flowable powders or solids have been tested to be very stable for at least two weeks chemically and physically at room temperature (RT) and ICH RH4 conditions (40° C. and 75% relative humility). The suspension solutions (SiO2-Compound or MCC-Compound in 0.4% HPMC solution or water) are also very stable both chemically and physically for at least two weeks at room temperature. The evaluation of SiO2-Compound and MCC-Compound are shown in Example 1.
Preparation of SiO2-Compound of Formula I samples may be carried out by the following representative steps. Uniformly mix 0.5 grams of API free form (amorphous) with 1.0 grams of SiO2 (Syliod®) 244 FP) in a container using a magnetic stirrer. Then add 5.0 mL of ethanol to the container to dissolve the compound completely. Stir at room temperature and dry the solution under N2 gas until a slurry is formed. Dry the slurry at increasing temperature beginning at 25° C. ending at 50° C. over a duration of 1 hour and at 50° C. for overnight under house vacuum. […]

Data set [4] in a line: In-vivo pharmacokinetic (PK) studies. Also on record: species or system rats and dogs. Conditions: Dose 10 mg/kg. An excerpt:
In-vivo pharmacokinetic (PK) studies in rats and dogs with these compositions show better PK results in terms of AUC, Cmax, and dose proportionality than that of compound only.

Structures are written as SMILES. Several values for one entry are separate records, joined by “and”; a condition that tells them apart may be missing. Equal entries are not always repeated.

By logP is commonly meant a log measure of how a compound divides between an organic and an aqueous phase. A higher logP goes with a more lipophilic compound. Broadly, the pKa is the pH at which an ionisable group is half protonated. Higher therefore signals a group that holds its proton tightly. As a reminder, the solubility is how much of the substance goes into solution per volume. The term AUC(0-t) denotes exposure summed from dosing to a finite time, without extrapolation to infinity. A lower AUC(0-t) goes with low exposure. A word on the Cmax: it is the peak of the concentration-time curve. As usually defined, the Tmax is the time at which the peak concentration occurs. With `CC(=O)N1CCC(CC(=O)N2CCN(C(c3ccccc3)c3ccc(OC(F)(F)F)cc3)C[C@@H]2C(C)(C)C)CC1` (stereo partly drawn) [Compound of Formula I, 1-[(1-acetyl-4-piperidinyl)acetyl]-2(S)-(1,1-dimethylethyl)-4(S)*4-[phenyl [4(trifluoromethoxy)phenyl]methyl]piperazine], in data set [1], the log partition coefficient (logP) was determined as 3. This compound also showed a pKa in data set [1] (weak base, ionization of the piperazine ring) of 4. Besides, the solubility in data set [2] (aqueous media, aqueous buffer, pH 4.0) was 1.9 µg/mL and 3.4 µM; in data set [2] (aqueous media, pH 2.3, aqueous buffer) it was 74.6 µg/mL and 133 µM; in data set [2] (aqueous media, pH 7.4, aqueous buffer, pH greater than 7.4), < 1 µg/mL and < 2 µM; in data set [2] (organic solvent or mixture, in both ethanol and methanol), above 150 mg/mL; in data set [2] (organic solvent or mixture, most common organic solvents (acetonitrile, DMSO, methylene chloride, ethyl acetate, isopropyl alcohol, hexane, acetone)), above 50 mg/mL. For the same compound, the “behaviour when suspended in 0.4% HPMC solution” value in data set [3] (SiO2 sample at 100 mg/mL, MCC sample at 102 mg/mL, free form as reference) is on record as “forms a gum”. Further, the “behaviour when suspended in aqueous media” value in data set [3] (aqueous media) is listed as “forms a gum”. The “% AUC (infinity)” value in data set [4] was 1.2%. In addition, in data set [4] (in vivo), the AUC(0-t) was 2520 ng·h/mL and 4.5 µM·h. In addition, the Cmax in data set [4] (in vivo) was 260 ng/mL and 500 nM. The Tmax in data set [4] (in vivo) came out at 3.3 h. Besides, the AUC(0-inf) in data set [4] (in vivo, read-out: AUC (infinity)) is 4.6 µM·h and 2550 ng·h/mL.
